Literature values as cited in patent US11395831B2, “Combination products of tobramycin compounds and dexameihasone compounds” (Somerset Therapeutics, LLC, priority 2020, dated 2022).
Converted amounts (≈) assume the structure as drawn.

solubility in water: 94 mg/mL (≈ 201 mM)
SMILES: NC[C@H]1O[C@H](O[C@H]2[C@H](O)[C@@H](O[C@H]3O[C@H](CO)[C@@H](O)[C@H](N)[C@H]3O)[C@H](N)C[C@@H]2N)[C@H](N)C[C@@H]1O [tobramycin, 0-{3-amino-3-deoxy-α-D-gluco-pyranosyl-(1→4)}-0-{2,6-diamino-2,3,6-trideoxy-α-D-ribohexo-pyranosyl-(1→6)}-2-deoxystreptamine]
